Data taken from US11407748B2, “Substituted pyrido[1,2-a]pyrimidines and pyrazino[1,2-a]pyrimidines for enhancing AMPA receptor function” (Takeda Pharmaceutical Company Limited, priority 2017, dated 2022).

Target: T1, hGluR1 flip (Homo sapiens, UniProt P42261)
T1 construct: expressed in transfected cells; host or cells: CHO-K1
Experiment: AMPA receptor function-enhancing activity using calcium influx as index
Format: cell-based
Details: test compound 30 μM with 3 mM glutamic acid; CHO-K1/GluR1 flip/stargazin-expressing cells; 100% = 3 mM glutamic acid + 300 μM cyclothiazide, 0% = 3 mM glutamic acid alone
Excerpt: Experimental Example 1 Measurement Method of AMPA Receptor Function-Enhancing Activity of Compound Using Calcium Influx as Index
(1) Construction of Expression Gene
Human GluR^1 flip cDNA was amplified by PCR method using forward primer […] (SEQ ID NO: 1) and reverse primer […] (SEQ ID NO: 2) artificially synthesized using human brain-derived cDNA (BD Bioscience) as a template. The amplified product was digested with restriction enzymes EcoRI, NotI (TAKARA SHUZO CO. LTD.) and incorporated into the same site of pcDNA3.1 (+) (Invitrogen) to construct pcDNA3.1(+)/human GluR1 flip gene. Human stargazin cDNA was amplified by PCR method using forward primer […] (SEQ ID NO: 3) and reverse primer […] (SEQ ID NO: 4) artificially synthesized using human hippocampus cDNA as a template. The amplified product was digested with restriction enzymes XhoI, BamHI (TAKARA SHUZO CO. LTD.) and incorporated into the same site of pcDNA3.1(−) (Invitrogen) to construct pcDNA3.1 Zeo(−)/human stargazing gene.
(2) Construction of GluR1 Flip/Stargazin Expressing Cell
CHO-K1 cells passaged in a culture medium (Ham's F12 medium (Invitrogen) added with 10% inactivated fetal bovine serum (Morgate) and penicillin, streptomycin (Invitrogen)) were detached using 0.05% trypsin and 0.53 mM EDTA (Invitrogen) diluted with D-PBS(−). The detached cells were suspended in a culture medium, and recovered by centrifugation at 1,000 rpm. The recovered cells were re-suspended in D-PBS(−) and added into 0.4 cm electroporation cuvette (BioRad). pcDNA3.1(+)/human GluR1 flip gene (5 μg) and pcDNA3.1 Zeo(−)/human stargazin gene (15 μg) were added, and introduced into CHO-K1 cells under the conditions of 950 μFd, […] and using Gene Pulser II (BioRad). The introduced cells were cultured overnight in a culture medium. The next day, using a selection medium (culture medium added with zeocin (Invitrogen) at 250 μg/mL), the cells were plated in a 96 well plate at 250 cells/well. The clones showing drug resistance were selected, and GluR1 flip/stargazin expression clones were selected by an assay method shown below using calcium influx as an index.
(3) Measurement Method of AMPA Receptor Function-Enhancing Activity of Compound, Using Calcium Influx as an Index
CHO-K1/GluR1 flip/stargazin-expressing cells were plated on a 384 well black bottom transparent plate, and cultured for 2 days in a CO2 incubator (SANYO ELECTRIC Co. Ltd.) at 37° C. The medium of the cell plate was removed. A calcium indicator (Calcium5 Assay Kit, Molecular Devices) was diluted with an assay buffer (HESS (Thermo Fisher Scientific), 0.1% BSA (Merck Millipoer) and 10 mM HEPES (Thermo Fisher Scientific)), and 1.25 mM probenecid (Dojindo Laboratories) was added thereto. The mixture prepared above was added at 30 μL/well (100 μL/well in case of 96 wells) to the well, and the well was left standing in 37° C., CO2 incubator for 1 hr. The cell plate was set in CellLux (PerkinElmer), a mixture (15 μL) (50 μL/well in case of 96 wells) of 9 mM glutamic acid (final concentration 3 mM) diluted with an assay buffer and a test compound (test compound concentration 30 μM) was added thereto, and variation in the amount of fluorescence was measured for 3 min. The variation of fluorescence level of a well added with final concentration 3 mM of glutamic acid and 300 μM cyclothiazide (TOCRIS) was defined as 100%, the variation of fluorescence level of a well added with final concentration 3 mM of glutamic acid alone was defined as 0%, and the activity of the compound was calculated by the following formula. activity (%)=(X−C)/(T−C)×100 • T: variation of fluorescence level of well added with final concentration 3 mM of glutamic acid and 300 μM cyclothiazide • C: variation of fluorescence level of well added with final concentration 3 mM of glutamic acid alone • X: variation of fluorescence level of well added with test compound

T1 sequence (P42261 19-906 isoform P42261-2 limits assumed): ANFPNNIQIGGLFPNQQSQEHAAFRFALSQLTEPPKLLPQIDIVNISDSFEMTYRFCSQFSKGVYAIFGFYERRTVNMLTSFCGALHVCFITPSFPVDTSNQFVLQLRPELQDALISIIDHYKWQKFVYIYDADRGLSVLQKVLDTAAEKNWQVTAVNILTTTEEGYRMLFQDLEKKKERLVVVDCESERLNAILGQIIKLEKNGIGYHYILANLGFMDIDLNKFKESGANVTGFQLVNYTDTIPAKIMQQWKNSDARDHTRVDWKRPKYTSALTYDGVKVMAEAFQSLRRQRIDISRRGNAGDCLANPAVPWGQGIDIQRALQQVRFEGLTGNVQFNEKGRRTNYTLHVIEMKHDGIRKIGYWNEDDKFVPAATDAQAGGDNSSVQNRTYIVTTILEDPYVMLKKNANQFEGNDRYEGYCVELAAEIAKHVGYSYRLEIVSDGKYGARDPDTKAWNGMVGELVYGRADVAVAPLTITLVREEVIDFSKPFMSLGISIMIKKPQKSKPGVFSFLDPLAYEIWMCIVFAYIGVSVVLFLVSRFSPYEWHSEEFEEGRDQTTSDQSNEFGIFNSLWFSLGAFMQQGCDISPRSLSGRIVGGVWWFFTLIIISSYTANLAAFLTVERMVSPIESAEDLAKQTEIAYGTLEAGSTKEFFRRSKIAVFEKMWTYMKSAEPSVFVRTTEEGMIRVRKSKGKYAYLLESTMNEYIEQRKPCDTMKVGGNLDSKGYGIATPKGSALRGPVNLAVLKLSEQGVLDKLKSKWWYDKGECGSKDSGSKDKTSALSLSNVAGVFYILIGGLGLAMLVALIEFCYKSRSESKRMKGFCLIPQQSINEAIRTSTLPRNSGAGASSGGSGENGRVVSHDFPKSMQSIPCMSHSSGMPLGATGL
T1 sequence (Q9Y698 whole entry partner): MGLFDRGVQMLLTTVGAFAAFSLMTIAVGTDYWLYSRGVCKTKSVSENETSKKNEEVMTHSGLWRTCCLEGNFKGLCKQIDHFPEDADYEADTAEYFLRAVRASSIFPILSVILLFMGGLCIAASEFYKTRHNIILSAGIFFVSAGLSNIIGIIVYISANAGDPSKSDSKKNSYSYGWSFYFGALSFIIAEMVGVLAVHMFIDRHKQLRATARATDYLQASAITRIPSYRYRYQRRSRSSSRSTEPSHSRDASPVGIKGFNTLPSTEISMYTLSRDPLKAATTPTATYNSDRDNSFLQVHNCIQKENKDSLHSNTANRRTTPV

Row | SMILES | activation at 30 µM [%]
1 | Cc1c(C(F)(F)F)nc2c(-c3ccc(C(=O)N(C)C4CCOCC4)c(F)c3)cccn2c1=O [Example 83, 2-fluoro-N-methyl-4-(3-methyl-4-oxo-2-(trifluoromethyl)-4H-pyrido[1,2-a]pyrimidin-9-yl)-N-(tetrahydro-2H-pyran-4-yl)benzamide] | 103
2 | CN(C(=O)c1ccc(-c2cccn3c(=O)c(Br)c(C(F)(F)F)nc23)cc1F)C1CCOCC1 [Example 84, 4-(3-bromo-4-oxo-2-(trifluoromethyl)-4H-pyrido[1,2-a]pyrimidin-9-yl)-2-fluoro-N-methyl-N-(tetrahydro-2H-pyran-4-yl)benzamide] | 102
3 | Cc1c(C(F)(F)F)nc2c(-c3ccc(C(=O)NC4CCOCC4)c(F)c3)cccn2c1=O [Example 85, 2-fluoro-4-(3-methyl-4-oxo-2-(trifluoromethyl)-4H-pyrido[1,2-a]pyrimidin-9-yl)-N-(tetrahydro-2H-pyran-4-yl)benzamide] | 109
4 | Cc1c(C(F)(F)F)nc2c(-c3ccc(C(=O)N[C@H]4CCOC4)c(F)c3)cccn2c1=O [Example 86, 2-fluoro-4-(3-methyl-4-oxo-2-(trifluoromethyl)-4H-pyrido[1,2-a]pyrimidin-9-yl)-N-((3S)-tetrahydrofuran-3-yl)benzamide] | 103
5 | COC1CCN(C(=O)c2ccc(-c3cccn4c(=O)c(C)c(C(F)(F)F)nc34)cc2F)CC1 [Example 87, 9-(3-fluoro-4-((4-methoxypiperidin-1-yl)carbonyl)phenyl)-3-methyl-2-(trifluoromethyl)-4H-pyrido[1,2-a]pyrimidin-4-one] | 101
6 | COC1CCN(C(=O)c2ccc(-c3cccn4c(=O)c(Br)c(C(F)(F)F)nc34)cc2F)CC1 [Example 88, 3-bromo-9-(3-fluoro-4-((4-methoxypiperidin-1-yl)carbonyl)phenyl)-2-(trifluoromethyl)-4H-pyrido[1,2-a]pyrimidin-4-one] | 90.3
7 | O=C(N[C@H]1CCCOC1)c1ccc(-c2cccn3c(=O)c(Br)c(C(F)(F)F)nc23)cc1 [Example 92, 4-(3-bromo-4-oxo-2-(trifluoromethyl)-4H-pyrido[1,2-a]pyrimidin-9-yl)-N-((3S)-tetrahydro-2H-pyran-3-yl)benzamide] | 78.9
8 | Cc1c(C(F)(F)F)nc2c(-c3ccc(C(=O)N[C@H]4CCCOC4)cc3)cccn2c1=O [Example 93, 4-(3-methyl-4-oxo-2-(trifluoromethyl)-4H-pyrido[1,2-a]pyrimidin-9-yl)-N-((3S)-tetrahydro-2H-pyran-3-yl)benzamide] | 88.2
9 | CCN(C(=O)c1ccc(-c2cccn3c(=O)c(Br)c(C(F)(F)F)nc23)cc1F)C1CC1 [Example 95, 4-(3-bromo-4-oxo-2 (trifluoromethyl)-4H-pyrido[1,2 a]pyrimidin-9-yl)-N-cyclopropyl-N-ethyl-2-fluorobenzamide] | 83.2
10 | CN(CC1CC1)C(=O)c1ccc(-c2cccn3c(=O)c(Br)c(C(F)(F)F)nc23)cc1F [Example 96, 4-(3-bromo-4-oxo-2-(trifluoromethyl)-4H-pyrido[1,2-a]pyrimidin-9-yl)-N-(cyclopropylmethyl)-2-fluoro-N-methylbenzamide] | 97.2

Now from value to molecule:

Row | activation at 30 µM [%] | SMILES
11 | 87.9 | C[C@H]1CN(C(=O)c2ccc(-c3cccn4c(=O)c(Br)c(C(F)(F)F)nc34)cc2F)CCO1 [Example 73, 3-bromo-9-(3-fluoro-4-(((2S)-2-methylmorpholin-4-yl)carbonyl)phenyl)-2-(trifluoromethyl)-4H-pyrido[1,2-a]pyrimidin-4-one]
12 | 88.2 | C[C@@H]1CN(C(=O)c2ccc(-c3cccn4c(=O)c(Br)c(C(F)(F)F)nc34)cc2F)CCO1 [Example 74, 3-bromo-9-(3-fluoro-4-(((2R)-2-methylmorpholin-4-yl)carbonyl)phenyl)-2-(trifluoromethyl)-4H-pyrido[1,2-a]pyrimidin-4-one]
13 | 99.1 | O=C(c1ccc(-c2cccn3c(=O)c(Br)c(C(F)(F)F)nc23)cc1F)N1CCCOCC1 [Example 75, 3-bromo-9-(3-fluoro-4-(1,4-oxazepan-4-ylcarbonyl)phenyl)-2-(trifluoromethyl)-4H-pyrido[1,2-a]pyrimidin-4-one]
14 | 93.3 | Cc1c(C(F)(F)F)nc2c(-c3ccc(C(=O)N4CCCOCC4)c(F)c3)cccn2c1=O [Example 76, 9-(3-fluoro-4-(1,4-oxazepan-4-ylcarbonyl)phenyl)-3-methyl-2-(trifluoromethyl)-4H-pyrido[1,2-a]pyrimidin-4-one]
15 | 94.2 | O=C(c1ccc(-c2cccn3c(=O)cc(C(F)(F)F)nc23)cc1F)N1CCc2cccnc21 [Example 78, 9-(4-(2,3-dihydro-1H-pyrrolo[2,3-b]pyridin-1-ylcarbonyl)-3-fluorophenyl)-2-(trifluoromethyl)-4H-pyrido[1,2-a]pyrimidin-4-one]
16 | 79.6 | O=C(c1ccc(-c2cccn3c(=O)c(Br)c(C(F)(F)F)nc23)cc1F)N1CCc2cccnc21 [Example 79, 3-bromo-9-(4-(2,3-dihydro-1H-pyrrolo[2,3-b]pyridin-1-ylcarbonyl)-3-fluorophenyl)-2-(trifluoromethyl)-4H-pyrido[1,2-a]pyrimidin-4-one]
17 | 90.6 | Cc1c(C(F)(F)F)nc2c(-c3ccc(C(=O)N4CCc5cccnc54)c(F)c3)cccn2c1=O [Example 80, 9-(4-(2,3-dihydro-1H-pyrrolo[2,3-b]pyridin-1-ylcarbonyl)-3-fluorophenyl)-3-methyl-2-(trifluoromethyl)-4H-pyrido[1,2-a]pyrimidin-4-one]
18 | 95.1 | O=C(c1ccc(-c2cccn3c(=O)c(Cl)c(C(F)(F)F)nc23)cc1F)N1CCCOCC1 [Example 81, 3-chloro-9-(3-fluoro-4-(1,4-oxazepan-4-ylcarbonyl)phenyl)-2-(trifluoromethyl)-4H-pyrido[1,2-a]pyrimidin-4-one]
19 | 81.4 | CN(C(=O)c1ccc(-c2cccn3c(=O)cc(C(F)(F)F)nc23)cc1F)C1CCOCC1 [Example 82, 2-fluoro-N-methyl-4-(4-oxo-2-(trifluoromethyl)-4H-pyrido[1,2-a]pyrimidin-9-yl)-N-(tetrahydro-2H-pyran-4-yl)benzamide]
20 | 82.8 | COC1CCN(C(=O)c2ccc(-c3cccn4c(=O)cc(C(F)(F)F)nc34)cc2F)CC1 [Example 89, 9-(3-fluoro-4-((4-methoxypiperidin-1-yl)carbonyl)phenyl)-2-(trifluoromethyl)-4H-pyrido[1,2-a]pyrimidin-4-one]
21 | 89.3 | CO[C@@H]1CCN(C(=O)c2ccc(-c3cccn4c(=O)c(C)c(C(F)(F)F)nc34)cc2F)C1 [Example 90, 9-(3-fluoro-4-(((3R)-3-methoxypyrrolidin-1-yl)carbonyl)phenyl)-3-methyl-2-(trifluoromethyl)-4H-pyrido[1,2-a]pyrimidin-4-one]
22 | 80.9 | CO[C@@H]1CCN(C(=O)c2ccc(-c3cccn4c(=O)c(Br)c(C(F)(F)F)nc34)cc2F)C1 [Example 91, 3-bromo-9-(3-fluoro-4-(((3R)-3-methoxypyrrolidin-1-yl)carbonyl)phenyl)-2-(trifluoromethyl)-4H-pyrido[1,2-a]pyrimidin-4-one]
23 | 94.4 | CN(C(=O)c1ccc(-c2cccn3c(=O)c(Br)c(C(F)(F)F)nc23)cc1F)C1CC1 [Example 94, 4-(3-bromo-4-oxo-2-(trifluoromethyl)-4H-pyrido[1,2-a]pyrimidin-9-yl)-N-cyclopropyl-2-fluoro-N-methylbenzamide]
